Data as given in US10654843B2, “LMP7 inhibitors” (PRINCIPIA BIOPHARMA INC., priority 2014, dated 2020).
Where two headings read alike, the source gives them in different places.

Experiments:
[1] = system: human Th1/17 differentiation; details: cited from earlier work
[2] = system: mouse Th1/17 differentiation; details: cited from earlier work
[3] = system: B cell effector functions; details: cited from earlier work
[4] = system: proinflammatory cytokines (IL-6, TNF-α, IL-23); details: cited from earlier work
[5] = system: murine collagen-induced arthritis; details: including inflammation and bone erosion; cited from earlier work
[6] = system: MRL/lpr lupus model; details: cited from earlier work
[7] = system: murine DSS-induced colitis model; details: cited from earlier work
[8] = system: Hashimoto's thyroiditis model; details: autoantibody-driven model; cited from earlier work
[9] = system: multiple myeloma cell lines and primary patient tumor cells; details: including those resistant to conventional and novel prior therapies; cited from earlier work
[10] = biological target: immunoproteasome (LMP7/B5i) (Homo sapiens, UniProt P20618+P28062); assay: Caliper-based proteasome assay, immunoproteasome chymotrypsin-like activity; assay type: biochemical; details: human recombinant immunoproteasome 0.3 nM, FAM-labeled peptide substrate 1 μM, room temperature 3 h
Method: (§1) A Caliper-based proteasome assay (Caliper Life Sciences, Hopkinton, Mass.) was used to measure inhibition of the chymotrypsin-like activity of both immunoproteasome (LMP7/B5i) and the constitutive proteasome (B5c) for a compound of Formula (I). Serial dilutions of test compounds were incubated with either human recombinant immunoproteasome or constitutive proteasome (0.3 nM enzyme) and a carboxyfluorescein (FAM)-labeled peptide substrate FAM-TYETFKSIMKKSPF-NH2 (1 μM) at room temperature for 3 h. The reaction buffer was 20 mM Hepes pH 7.4, 0.01% bovine serum albumin, 0.015% SDS, 0.5 mM EDTA, 1% DMSO. The reaction was then terminated with a buffer containing the known proteasome inhibitor carfilzomib at a concentration of 5 uM. The peptide cleavage reaction product was quantified on a Caliper LabChip 3000. Percent inhibition was calculated for each compound dilution and the concentration that produced 50% inhibition was calculated. This value is presented as the IC50.

[11] = biological target: constitutive proteasome (B5c) (Homo sapiens, UniProt P20618+P28074); assay: Caliper-based proteasome assay, constitutive proteasome chymotrypsin-like activity; assay type: biochemical; details: human recombinant constitutive proteasome 0.3 nM, FAM-labeled peptide substrate 1 μM, room temperature 3 h
Method: as §1

[12] = biological target: T1, proteasome activity in HT-29 cells (enriched in constitutive proteasome) (Homo sapiens, UniProt P28074); assay: Inhibition of proteasome activity in cells (Proteasome-Glo), HT-29; assay type: cell-based; details: 2 hr incubation, Suc-LLVY-aminoluciferin, read-out: HT29 IC50
T1 construct: endogenous in cells; host or cells: HT-29
Method: (§2) The cell-based effects of the compound of the present disclosure on immunoproteasome were determined by measuring inhibition of proteasome activity in cells using the Proteasome-Glo™ Cell-Based Reagent (Promega, Madison Wis). The Proteasome-Glo™ assay contains a specific luminogenic proteasome substrate in a buffer optimized for cell permeabilization, proteasome activity, and luciferase activity. For the chymotrypsin-like activity, the peptide substrate is Suc-LLVY-aminoluciferin (Succinyl-leucine-leucine-valine-tyrosine-aminoluciferin). Cleavage of the substrate by proteasome results in luminescent signal which is proportional to the proteasome activity. The cell line THP-1 (a monocytic leukemia cell line enriched in immunoproteasome), the cell line HT-29 (a colorectal adenocarcinoma cell line enriched in constitutive proteasome), and primary human peripheral blood mononuclear cells (PBMC) were used to assess proteasome activity. Cells were seeded in a 96-well plate at 10,000 cells per well in RPMI 1640 high glucose medium with 10% fetal bovine serum (FBS). Compound dilutions were added to cells starting at a concentration of 5 uM and decreasing in tripling dilutions. The final DMSO concentration was 1%. The concentration range was adjusted as needed for compounds of different potencies. The cells treated with compounds were incubated for 2 hr at 37° C. in 5% CO2. At the end of the 2 hour incubation period, cells were transferred to white 384 well assay plates. 20 uL of Proteasome-Glo™ Reagent was added to each well and incubated for 10 minutes at room temperature. The plate was read in the Analyst HT instrument (Molecular Devices, Sunnyvale, Calif.) using luminescence mode. The percent inhibition of activity was plotted as a function of log compound concentration. The IC50 was then calculated for each compound using Prism software from GraphPad Software Inc. (San Diego, Calif).

[13] = biological target: T2, proteasome activity in primary human peripheral blood mononuclear cells (PBMC) (Homo sapiens, UniProt P28062); assay: Inhibition of proteasome activity in cells (Proteasome-Glo), PBMC; assay type: cell-based; details: 2 hr incubation, Suc-LLVY-aminoluciferin
T2 construct: endogenous in cells; host or cells: primary human PBMC
Method: as §2

[14] = biological target: T3, proteasome activity in HT-29 cells (Homo sapiens, UniProt P28074); assay: Durability of binding in cells, wash-out assay (Proteasome-Glo), HT-29; assay type: cell-based; details: 2 hours incubation, washout
T3 construct: endogenous in cells; host or cells: HT-29
Method: The durability of binding of proteasome inhibitors was assessed in cells using wash-out assays and the Proteasome-Glo™ Reagent kit. THP-1 cells, HT-29 cells, or PBMC were incubated with an 8-fold dilution series of inhibitor for 2 hours. Following 2 hours of incubation, cells were washed using 3 occasions of centrifugation followed by resuspension in culture medium. Following inhibitor washout, cells were returned to culture for either 30 minutes, 4 hours, or 18 hours. Cells were then transferred to white 384 plates, and 20 uL of Proteasome-Glo™ Reagent was added to each well for 10 minutes. Plates were then read on an Analyst HT plate reader using luminescence mode. The percent inhibition of activity was plotted as a function of log compound concentration. The IC50 was then calculated for each compound using Prism software from GraphPad.

[15] = biological target: immunoproteasome (LMP7) (Homo sapiens, UniProt P20618+P28062); assay: Recovery of enzymatic activity upon dialysis; assay type: biochemical; details: FIG. 1, dialysis
Description: The dialysis assay was done to determine if a compound binds reversibly or irreversibly to immunoproteasome thereby resulting in reversible or irreversible inhibition of proteaseome activity. […] Partial or complete recovery of proteasome activity over extended periods of time during dialysis is indicative of slow off-rate kinetics due to formation of a reversible covalent bond. For rapidly reversible compounds complete recovery of proteosome activity upon dialysis is expected to be observed.
A solution containing immunoproteasome was incubated with a compound of the disclosure (test compound) or (S)-4-methyl-N—((S)-1-(((S)-4-methyl-1-((R)-2-methyloxiran-2-yl)-1-oxopentan-2-yl)amino)-1-oxo-3-phenylpropan-2-yl)-2-((S)-2-(2-morpholino-acetamido)-4-phenylbutanamido)-pentanamide (reference compound), an irreversible covalent inhibitor of the immunoproteosome which targets the catalytic threonine of the immunoproreasome subunits (see Kuhn, D. J., et al. 2007. Potent activity of carfilzomib, a novel, irreversible inhibitor of the ubiquitin-proteasome pathway, against preclinical models of multiple myeloma. Blood, 110(9), 3281-3290). […] Following dialysis, enzymatic activity was measured using the Caliper-based proteasome activity assay (Caliper Life Sciences, Hopkinton, Mass). […]

COc1ccc(C[C@H](NC(=O)[C@H](C)NC(=O)CN2CCOCC2)C(=O)N[C@@H](Cc2ccccc2)C(=O)[C@@]2(C)CO2)cc1 [PR-957]
human Th1/17 differentiation [1]: potently block | mouse Th1/17 differentiation [2]: potently block | B cell effector functions [3]: potently block | production of proinflammatory cytokines (IL-6, TNF-α, IL-23) [4]: potently block | disease activity in murine collagen-induced arthritis [5]: significantly inhibit disease activity | anti-dsDNA IgG levels [6]: reduced | disease progression [6]: prevented disease progression | plasma cell numbers [6]: reduced | inflammation and tissue destruction [7]: reduced inflammation and tissue destruction | efficacy in Hashimoto's thyroiditis model [8]: efficacious

CC1=C(C(=O)N[C@H](C)C(=O)N[C@@H](Cc2c[nH]c3ccccc23)C(=O)N[C@@H](Cc2ccccc2)C(=O)[C@@]2(C)CO2)Cc2ccccc21 [PR-924]
growth of multiple myeloma cell lines and primary patient tumor cells [9]: inhibit growth

Cc1ccc(CNC(=O)[C@H](COc2cccc(C=C(C#N)C(=O)NC(C)(C)C)c2)NC(=O)[C@@H](NC(=O)c2cc(C)on2)[C@@H](C)O)cc1 [Example 3]
IC50 [10]: 27 nM | IC50 [11]: 1030 nM | IC50 [12]: 1370 nM | IC50 [13]: 3 nM | IC50 ([14]; 30 minutes in culture, read-out: HT29 (30 min) IC50): > 5000 nM | IC50 ([14]; 4 hours in culture, read-out: HT29 (4 h) IC50): > 5000 nM | binding to the immunoproteosome [15]: reversible
